Measured values as given in PMC11002876, “KcsA-Kv1.x chimeras with complete ligand-binding sites provide improved predictivity for screening selective Kv1.x blockers” (The Journal of Biological Chemistry, 2024).
Where no end group is shown, it is not given here.

Assays:
[1] = test system: human Kv1.1 channel (hKv1.1); conditions: read-out: IC50 on Kv1.1; positive control applied at a concentration equivalent to its IC50; no reference given; cited from earlier work
Description: (§4) Voltage protocols: For measurement of Kv1.1 to 1.3 currents, voltage steps to +50 mV were applied from a holding potential of −120 mV and the peak current was measured every 15 s. For Kv1.3 currents, 15-ms-long depolarizing pulses were applied. For Kv1.1, 50-ms-long–activating stimuli were used. Kv1.2 currents were evoked by 200-ms-long pulses. […] The remaining current fraction at a given molar concentration was calculated ...

[2] = test system: human Kv1.3 channel (hKv1.3); conditions: read-out: IC50 on Kv1.3; positive control applied at a concentration equivalent to its IC50; no reference given; cited from earlier work
Description: as §4

[3] = test system: human Kv1.3 channel (hKv1.3); type: cell-based; conditions: TEA+ 10 mM, positive control; human lymphocytes
Description: (§1) Human Kv1.3 currents were recorded from activated peripheral blood mononuclear cells (see below) 3 to 4 days after activation. Heparinized human peripheral venous blood was obtained from healthy volunteers. Mononuclear cells were separated through Histopaque-1077 density gradient centrifugation. Collected cells were washed twice with Ca^2+- and Mg^2+-free Hanks’ solution containing 25 mM Hepes buffer, pH 7.4. Cells were cultured for 3 to 4 days in 24-well culture plates in a 5% CO2 incubator at 37 °C, in RPMI 1640 medium supplemented with 10% fetal calf serum (Sigma-Aldrich), 100 μg/ml penicillin, 100 μg/ml streptomycin, and 2 mM L-glutamine (density, 0.5 × 10^6 cells per ml). Phytohemagglutinin A (Sigma-Aldrich) was added to the medium at 10 μg/ml to amplify the Kv1.3 expression. Cells were washed gently twice with 2 ml of ECS for the patch-clamp experiments.
(§2) Conventional whole-cell patch-clamp electrophysiology was used to record ionic currents. Micropipettes were pulled from GC150F-7.5 borosilicate capillaries (Harvard Apparatus) with tip diameters between 0.5 and 1 μm resulting in a tip resistance of 2 to 8 MΩ in the extracellular (bath) solution. All measurements were carried out by using Axopatch 200B amplifier connected to a personal computer using Axon Digidata 1550A data acquisition hardware and Pclamp10.7 software (https://support.moleculardevices.com/s/article/Axon-pCLAMP-10-Electrophysiology-Data-Acquisition-Analysis-Software-Download-Page). The holding potential was −120 mV. Records were discarded when leak at the holding potential was >10% of peak current at the test potential. Experiments were performed at room temperature (20–24 °C). Before analysis, whole-cell current traces were corrected for ohmic leakage and digitally filtered with a three-point boxcar smoothing filter.
Solutions: all salts and components of the solutions were purchased from Sigma Aldrich. […]
Native peptides, phage-expressed peptides, and positive controls used for them were dissolved in ECS supplemented with 0.1 mg/ml bovine serum albumin (BSA; Sigma-Aldrich Hungary). Bath perfusion around the measured cell with different extracellular solutions was achieved using a gravity flow micro perfusion system using a rate of 0.5 ml/min. […]
(§3) Voltage protocols: For measurement of Kv1.1 to 1.3 currents, voltage steps to +50 mV were applied from a holding potential of −120 mV and the peak current was measured every 15 s. […] The remaining current fraction at a given molar concentration was calculated as I/I0, where I0 is the peak current in the absence and I is the peak current at equilibrium block or […] after ∼2 min perfusion by the investigated peptide/phage.

[4] = test system: human Kv1.3 channel (hKv1.3); test: Whole-cell patch-clamp of phage-displayed toxins, hKv1.3 in human lymphocytes; type: cell-based; conditions: perfusion concentration; phage-displayed toxin; experimentally titrated; N = 3
Description: as §1, §2
Solutions: all salts and components of the solutions were purchased from Sigma Aldrich. The extracellular (bath) solution (ECS) contained 145 mM NaCl, 5 mM KCl, 2.5 mM CaCl2, 1 mM MgCl2, 10 mM Hepes, and 5.5 mM glucose (pH 7.35 with NaOH), while the intracellular (pipette) solution (ICS) contained 140 mM KF, 2 mM MgCl2, 1 mM CaCl2, 11 mM EGTA, and 10 mM Hepes (pH 7.22 with KOH). The osmolarity of the ECS and ICS were 302 mOsM.
Native peptides, phage-expressed peptides, and positive controls used for them were dissolved in ECS supplemented with 0.1 mg/ml bovine serum albumin (BSA; Sigma-Aldrich Hungary). Bath perfusion around the measured cell with different extracellular solutions was achieved using a gravity flow micro perfusion system using a rate of 0.5 ml/min. Excess fluid was removed continuously.
as §3, with “s. For Kv1.3 currents, 15-ms-long depolarizing pulses were applied. For Kv1.1, 50-ms-long–activating stimuli were used. Kv1.2 currents were evoked by 200-ms-long pulses.” for “s.”
Phage display test solutions were prepared according to routine phage display protocols ([62]). Phosphorylated and annealed oligonucleotides encoding the peptide construct were ligated into linearized pAS62 phagemid vector (https://patents.google.com/patent/WO2022144560A1/en) at a vector/insert ratio of 1:3. The final phagemid construct harbored a signal sequence followed by the peptide of interest, a linker sequence ([…]), and the C-terminal part of the P3 coat protein (amino acids: 216-424 of NP_510891.1). Chemically competent XL1-Blue E. coli cells (2022249, Agilent) were transformed with the ligation product and then streaked onto ampicillin (100 μg/ml) containing LB/Amp plates and incubated for 16 h at 37 °C.

[5] = molecular target: T1, KcsA-Kv1.3 T-only chimera (Streptomyces lividans, UniProt P0A334, A54D/A57S/G53D/G56T/I60S/L59F/Q58G/R52A/R64D/T61S/Y62I); test: Phage ELISA-binding assay, KcsA-Kv1.3 T-only; parameters: species or system human Kv1.3 turret in Streptomyces lividans KcsA; conditions: toxin displayed on M13 phage
T1 construct: made in house; host or cells: E. coli XL1-Blue (pQE30)
T1 sequence (P0A334 1-160 R52A/G53D/A54D/G56T/A57S/Q58G/L59F/I60S/T61S/Y62I/R64D): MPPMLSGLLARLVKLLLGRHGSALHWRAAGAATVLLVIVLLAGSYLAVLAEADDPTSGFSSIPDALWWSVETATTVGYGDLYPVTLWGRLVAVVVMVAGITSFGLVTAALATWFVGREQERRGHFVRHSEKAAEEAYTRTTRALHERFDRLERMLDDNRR
Description: Phage display test solutions were prepared according to routine phage display protocols ([62]). Phosphorylated and annealed oligonucleotides encoding the peptide construct were ligated into linearized pAS62 phagemid vector (https://patents.google.com/patent/WO2022144560A1/en) at a vector/insert ratio of 1:3. The final phagemid construct harbored a signal sequence followed by the peptide of interest, a linker sequence ([…]), and the C-terminal part of the P3 coat protein (amino acids: 216-424 of NP_510891.1). […] The particle concentrations of phage solutions were determined using a NanoDrop One C (Thermo Fisher Scientific) spectrophotometer. The phage particle concentration was assessed according to the formula: (A268–A320) × 5 × 10^12 particles/ml ([62]). […]
Phage stock solutions were diluted to working concentration with phage resuspension buffer supplemented with 2 mM DDM. […] Following blocking, the wells were washed 4× with washing buffer (300 μl TBS-Tween, 0.1% v/v) using a Wellwash Versa microplate washer (Thermo Fisher Scientific); then 50 μl phage solution (in TBS-BSA-Tween, 0.1% v/v, 2 mM DDM) at determined phage concentration was added to the wells and incubated for 1 h at room temperature on a horizontal shaker. […]

[6] = test system: T+F chimera variant mutated at T84; test: Phage binding to T84-mutated T+F chimera, pilot experiment; conditions: pilot experiment (not shown)
Description: Phage stock solutions were diluted to working concentration with phage resuspension buffer supplemented with 2 mM DDM. For protein immobilization, the following amounts were used in a final volume of 50 μl/well: wt KcsA, 0.1 μg; KcsA-Kv1.1 T-only, 0.005 μg; KcsA-Kv1.1 T+F, 0.02 μg; KcsA-Kv1.2 T-only, 0.01 μg; KcsA-Kv1.2 T+F, 0.1 μg; KcsA-Kv1.3 T-only, 0.01 μg; and KcsA-Kv1.3 T+F, 0.1 μg. Protein samples were diluted in 50 μl of storage buffer (20 mM Tris pH8.0, 300 mM KCl, 2 mM DDM) and were added to the designated wells of a Pierce Clear, 96-Well Nickel Coated Plate (15442, Thermo Fisher Scientific), then incubated for 1 h at room temperature on a horizontal shaker at 130 rpm. The plate was blocked for 1 h at room temperature with 180 μl/well TBS-BSA supplemented with 1 mM DDM. Following blocking, the wells were washed 4× with washing buffer (300 μl TBS-Tween, 0.1% v/v) using a Wellwash Versa microplate washer (Thermo Fisher Scientific); then 50 μl phage solution (in TBS-BSA-Tween, 0.1% v/v, 2 mM DDM) at determined phage concentration was added to the wells and incubated for 1 h at room temperature on a horizontal shaker. […] The light absorbance signal was read at 450 nm with Byonoy absorbance 96 plate reader (Byonoy GmbH).

[7] = test system: human Kv1.2 channel (hKv1.2); conditions: positive control applied at a concentration equivalent to its IC50; no reference given; cited from earlier work
Description: as §4

CC[N+](CC)(CC)CC [TEA+, tetraethylammonium]
IC50 [1]: 300 µM | IC50 [2]: 10 mM | inhibition of Kv1.3 current [3]: approximately 50%

HgTX1-phage: HgTx1 fused to the P3 coat protein of M13 phage with an eight amino acid linker (TVIDVKCTSPKQCLPPCKAQFGIRAGAKCMNGKCKCYPH-{GSASSATR-M13 P3 coat protein (216-424)}; not fully specified; ends and bridges not checked)
phage concentration giving approximate 50% block of hKv1.3 current [4]: ~1.8 x 10^12 particle/ml | phage binding to KcsA-Kv1.3 T-only, in words [5]: weaker binding

MTX-expressing phages: MTX displayed on M13 phage (VSCTGSKDCYAPCRKQTGCPNAKCINKSCKCYGC-{GSASSATR-M13 P3 coat protein (216-424)}; not fully specified; ends and bridges not checked)
binding to T+F chimera variant mutated at T84, in words [6]: did not diminish when T84 was mutated

charybdotoxin
IC50 [7]: 14 nM
